From publication PMC8704606, “The Artemiside-Artemisox-Artemisone-M1 Tetrad: Efficacies against Blood Stage P. falciparum Parasites, DMPK Properties, and the Case for Artemiside” (Pharmaceutics, 2021)
Like-named read-outs stand apart in the source and are kept apart here.

Tests used:
[1] = system: TM91-C235 (CQ and MFQ resistant); parameters: method as in ref S2; conditions: [3H]-hypoxanthine assay; ref S2; read-out: Antimalarial activities IC50 TM91-C235; cited from earlier work
TM-C2B = system: TM-C2B; parameters: method as in ref S2; conditions: [3H]-hypoxanthine assay; ref S2; read-out: Antimalarial activities IC50 TM-C2B; cited from earlier work
[2] = system: asexual blood stages of Pf NF54 (drug sensitive); experiment: SYBR Green I proliferation assay, asexual blood stages, Pf NF54; type: cell-based, Plasmodium falciparum
Method: (§1) Dose response curves are in Figures S1a–c and S2a–c in the Supplementary Material 1. Table 1 also includes the historical values for artemiside and artemisone obtained using the same assay.
(§2) All other assay conditions are as previously described. Compound working solutions were prepared from a 10 mM stock solution in 100% (vol/vol) dimethyl sulfoxide (DMSO, Sigma-Aldrich) in supplemented RPMI 1640 medium containing AlbuMAX II with a final DMSO concentration of 0.1% (vol/vol), previously determined to be nontoxic to blood stage asexual parasites and gametocytes. The dose-responses of the amino-artemisinins were assayed using a 2-fold serial drug dilution on in vitro 95% ring-stage parasites at 37 °C under 90% N2, 5% CO2, and 5% O2 atmospheric conditions, detecting SYBR green I fluorescence as the proliferative marker following a 96 h drug treatment (1% parasitemia and 1% hematocrit) using a GloMaxR-Multi+ Detection System (Promega). No drug washout steps were performed during drug incubation periods prior to the assays. Activity against the Pf drug-sensitive NF54 strain and the drug-resistant K1 (resistant to CQ, quinine, pyrimethamine, and cycloguanil) and W2 (resistant to CQ, quinine, pyrimethamine, and cycloguanil) strains was evaluated. Data analysis was performed using GraphPad Prism (version 6), intra-assay variability was monitored with Z-factors, and acceptable interassay reproducibility was determined from the percent coefficient of variation (CV).

[3] = system: asexual blood stages of Pf K1 (drug resistant); experiment: SYBR Green I proliferation assay, asexual blood stages, Pf K1; type: cell-based, Plasmodium falciparum
Method: as §1, §2

[4] = system: asexual blood stages of Pf W2 (drug resistant); experiment: SYBR Green I proliferation assay, asexual blood stages, Pf W2; type: cell-based, Plasmodium falciparum
Method: as §1, §2

[5] = system: early-stage (EG) Pf NF54 gametocytes; experiment: Luciferase assay, early-stage gametocytes; type: cell-based, Plasmodium falciparum; conditions: early-stage gametocytes >95% stages II-III, 48 h incubation, ± SEM
Method: For screening artemisox and M1 against early- (EG) and late-stage (LG) gametocytes, the luciferase assay with transgenic NF54-pfs16-GFP-Luc and NF54-Mal8p1.16-GFP-Luc parasite lines was used. With this assay, stage-specificity of gametocytocidal action was established (Table 2). Dose-response curves are in Figures S1d,e and S2d in the Supplementary Material 1. […] As was observed previously for artemisone and artemiside, dose responses for artemisox and M1 could not be obtained at 48 h against late-stage gametocytes.
The same reference compounds with the exception of CQ were used for the early- and late-stage gametocyte assays. Gametocytocidal activity was determined using the transgenic NF54-pfs16-GFP-Luc and NF54-Mal8p1.16-GFP-Luc reporter lines. Compounds were initially screened for activity at a fixed drug concentration of 1 µM, with dose responses subsequently determined using 2-fold serial drug dilutions for 48 h against early-stage gametocytes (day 5 post-induction population, ≥95% stages II–III) and 10-fold serial drug dilutions for 48 h or 72 h against late-stage gametocytes (day 10 post-induction population, ≥90% late-stage [stages IV–V]) (2 to 3% gametocytemia, 2% hematocrit) at 37 °C under 90% N2, 5% CO2, and 5% O2 [6]. No drug washout steps were performed during the drug incubation periods prior to the assays. In all cases, an interference assay was run in parallel to eliminate the possibility of false positives arising through compound interference with the luciferase readout.

[6] = parameters: method as in PMID 34097488; conditions: cited from earlier work

In the case of `C[C@H]1[C@H](N2CCS(=O)(=O)CC2)O[C@@H]2O[C@@]3(C)CC[C@H]4[C@H](C)CC[C@@H]1[C@@]24OO3` [Artemisone 7, Artemisone], the IC50 [1] is listed as 1.1 ± 0.5 nM and the IC50 (TM-C2B) is listed as 1.1 ± 0.4 nM.

For `C[C@H]1[C@H](N2CC[S+]([O-])CC2)O[C@@H]2O[C@@]3(C)CC[C@H]4[C@H](C)CC[C@@H]1[C@@]24OO3` [Artemisox 6, Artemisox], the IC50 ([2]; Plasmodium falciparum, NF54, 96 h, asexual blood stage Pf NF54, CQ sensitive, SYBR Green I, 96 h, ± SEM, read-out: IC50 NF54) was 1.95 ± 0.25 nM, the IC50 ([2]; Plasmodium falciparum, NF54, summary over NF54, K1 and W2 strains, read-out: IC50 against asexual Pf blood stage parasites) was roughly 2 nM and the IC50 ([2]; summary over NF54, K1 and W2 strains, read-out: IC50 against asexual Pf blood stage parasites) was 1.5 to 2.6 nM. The “RI (resistance index) = IC50 K1/IC50 NF54” value [3] was 0.8, the IC50 ([3]; Plasmodium falciparum, asexual blood stage Pf K1, multidrug resistant, SYBR Green I, 96 h, ± SEM) was 1.5 ± 0.5 nM and the “RI ratios” value ([3]; multidrug resistant K1 and W2 vs NF54) was less than 1. The “RI = IC50 W2/IC50 NF54” value [4] was 0.7, the IC50 ([4]; Plasmodium falciparum, asexual blood stage Pf W2, multidrug resistant, SYBR Green I, 96 h, ± SEM) was 1.5 ± 0.4 nM and the IC50 ([5]; Plasmodium falciparum, NF54, 48 h) was 18.9 nM. It also gave an IC50 [5] of 18.9 ± 0.98 nM.

For `C[C@H]1[C@H](N2CCSCC2)O[C@@H]2O[C@@]3(C)CC[C@H]4[C@H](C)CC[C@@H]1[C@@]24OO3` [Artemiside 5, Artemiside], the “F% (oral bioavailability)” value [6] is listed as 1%.
